Measured values: patent US20250145665A1, “MACROCYCLIC PEPTIDES USEFUL AS MODULATORS OF TNF ALPHA” (Bristol-Myers Squibb Company, priority 2023, published 2025)
Read-outs that look alike come from different tables or passages of the source. Starred links: 1 amine or outer side, 2 acyl side, 3 side chain; linkers in the order of their positions; H or OH if unused. Positions of bridges follow the written chain, without caps; N, C: chain ends. Non-standard residues stand in square brackets, D forms with d. Residues, ends and D or L forms follow the SMILES beside them. *: point of attachment. Bip(4'-NHCO-C6H4-4-CH2COOH) = N[C@@H](Cc1ccc(-c2ccc(NC(=O)c3ccc(CC(=O)O)cc3)cc2)cc1)C(=O)O; Bip(4'-(3-HOOC-benzamido)) = N[C@@H](Cc1ccc(-c2ccc(NC(=O)c3cccc(C(=O)O)c3)cc2)cc1)C(=O)O; Bip(4'-NH) = O=C([C@H](Cc1ccc(-c2ccc(N[*:3])cc2)cc1)N[*:1])[*:2]; dArg(ω-(3-HO-benzyl)) = N=C(NCCC[C@@H](N)C(=O)O)NCc1cccc(O)c1; Indazole3carbonyl(1-CH2COOH) = O=C(O)Cn1nc(C(=O)*)c2ccccc21; Bip(4'-COOH) = N[C@@H](Cc1ccc(-c2ccc(C(=O)O)cc2)cc1)C(=O)O; Bip(4'-NHAc) = CC(=O)Nc1ccc(-c2ccc(C[C@H](N)C(=O)O)cc2)cc1; Phe(3-CH2NH2) = O=C([C@H](Cc1cccc(CN[*:3])c1)N[*:1])[*:2]; Ala(morpholin-4-yl) = N[C@@H](CN1CCOCC1)C(=O)O; Bip = N[C@@H](Cc1ccc(-c2ccccc2)cc1)C(=O)O; 2Pal = N[C@@H](Cc1ccccn1)C(=O)O; 3Pal = N[C@@H](Cc1cccnc1)C(=O)O; 2Thi = N[C@@H](Cc1cccs1)C(=O)O; Tle = CC(C)(C)[C@H](N)C(=O)O; Pip = O=C(O)[C@@H]1CCCCN1; Aze = O=C(O)[C@@H]1CCN1; Sar = CNCC(=O)O

Biological target: TNFα (Homo sapiens, UniProt P01375)
Sequence (P01375 77-233 limits assumed): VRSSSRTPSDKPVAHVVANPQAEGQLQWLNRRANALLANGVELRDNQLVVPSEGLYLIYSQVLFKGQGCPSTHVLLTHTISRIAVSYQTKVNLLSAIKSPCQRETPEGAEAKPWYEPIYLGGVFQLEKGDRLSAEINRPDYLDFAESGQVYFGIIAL
Assay: TNF-Induced HEK-Blue Assay
Format: cell-based
[1] = HEK-Blue-CD40L cells, NF-kB-driven secreted alkaline phosphatase reporter, TNFα 0.5 ng/ml, 18 h, read-out: TNF induced HEK-Blue assay IC50 value

IC50 [1] [nM]	Compound	IC50 [nM]
< 50	CC(C)C[C@@H]1NC(=O)[C@H](Cc2cccs2)NC(=O)[C@H](C(C)C)NC(=O)[C@@H]2CCCN2C(=O)[C@H](C(C)C)NC(=O)[C@@H](CCCNC(=N)N)NC(=O)[C@H](CC(=O)O)NC(=O)[C@H](Cc2ccccn2)NC(=O)CN(C)C(=O)[C@H](Cc2ccc(-c3ccc(NC(=O)c4ccc(CC(=O)O)cc4)cc3)cc2)NC(=O)[C@H](Cc2ccc(-c3ccc(C(=O)O)cc3)cc2)NC(=O)[C@H](CN2CCOCC2)NC(=O)CSC[C@@H](C(=O)NCC(N)=O)NC1=O [Example 611] ({CH2CO}-[Ala(morpholin-4-yl)][Bip(4'-COOH)][Bip(4'-NHCO-C6H4-4-CH2COOH)][Sar][2Pal]D[dR]VPV[2Thi]LCG-NH2; thioether N-13)	
< 50	CC[C@H](C)[C@@H]1NC(=O)[C@@H]2CCCN2C(=O)[C@H]([C@@H](C)CC)NC(=O)[C@@H](CCCNC(=N)N)NC(=O)[C@H](CC(=O)O)NC(=O)[C@H](Cc2ccccc2)NC(=O)CN(C)C(=O)[C@H](Cc2ccc(-c3ccc(NC(=O)c4cccc(C(=O)O)c4)cc3)cc2)NC(=O)[C@H](Cc2ccc(-c3ccc(C(=O)O)cc3)cc2)NC(=O)[C@H](C(C)(C)C)NC(=O)CSC[C@@H](C(=O)NCC(N)=O)NC(=O)[C@H](CC(C)C)NC(=O)[C@H](Cc2cnc[nH]2)NC1=O [Example 351] ({CH2CO}-[Tle][Bip(4'-COOH)][Bip(4'-(3-HOOC-benzamido))][Sar]FD[dR]IPIHLCG-NH2; thioether N-13)	
200 to 2000	CC(C)C[C@@H]1NC(=O)[C@H](CCCNC(=N)N)NC(=O)[C@H](C(C)C)NC(=O)[C@@H]2CCCN2C(=O)[C@H](C(C)C)NC(=O)[C@H](CCCNC(=N)N)NC(=O)[C@H](CC(=O)O)NC(=O)[C@@H]2CCCN2C(=O)CN(C)C(=O)[C@H](Cc2ccc(-c3ccccc3)cc2)NC(=O)[C@H](Cc2ccc(-c3ccccc3)cc2)NC(=O)[C@H](C(C)C)NC(=O)CSC[C@@H](C(=O)NCC(N)=O)NC1=O [Example 9] ({CH2CO}-V[Bip][Bip][Sar]PDRVPVRLCG-NH2; thioether N-13)	
50 to 200	CC(=O)Nc1ccc(-c2ccc(C[C@@H]3NC(=O)[C@H](Cc4ccc(-c5ccccc5)cc4)NC(=O)[C@H](CN4CCOCC4)NC(=O)CSC[C@@H](C(=O)NCC(N)=O)NC(=O)[C@H](CC(C)C)NC(=O)[C@H](Cc4ccc(O)cc4)NC(=O)[C@H](C(C)C)NC(=O)[C@@H]4CCCN4C(=O)[C@H](C(C)C)NC(=O)[C@@H](CCCNC(=N)N)NC(=O)[C@H](CC(=O)O)NC(=O)[C@@H]4CCCCN4C(=O)CN(C)C3=O)cc2)cc1 [Example 182] ({CH2CO}-[Ala(morpholin-4-yl)][Bip][Bip(4'-NHAc)][Sar][Pip]D[dR]VPVYLCG-NH2; thioether N-13)	
200 to 2000	CC(C)C[C@@H]1NC(=O)[C@H](CCCNC(=N)N)NC(=O)[C@H](C(C)C)NC(=O)[C@@H]2CCCN2C(=O)[C@H](Cc2cccnc2)NC(=O)[C@@H](CCCNC(=N)N)NC(=O)[C@H](CC(=O)O)NC(=O)[C@H](Cc2ccc(O)cc2)NC(=O)CN(C)C(=O)[C@H](Cc2ccc(-c3ccccc3)cc2)NC(=O)[C@H](Cc2ccc(-c3ccccc3)cc2)NC(=O)[C@H](CN2CCOCC2)NC(=O)CSC[C@@H](C(=O)NCC(N)=O)NC1=O [Example 117] ({CH2CO}-[Ala(morpholin-4-yl)][Bip][Bip][Sar]YD[dR][3Pal]PVRLCG-NH2; thioether N-13)	
< 50	CC(=O)Nc1ccc(-c2ccc(C[C@@H]3NC(=O)[C@H](Cc4ccc(-c5ccccc5)cc4)NC(=O)[C@H](CN4CCOCC4)NC(=O)CSC[C@@H](C(=O)NCC(N)=O)NC(=O)[C@H](CC(C)C)NC(=O)[C@H](Cc4cccnc4)NC(=O)[C@H](C(C)C)NC(=O)[C@@H]4CCCN4C(=O)[C@H](C(C)C)NC(=O)[C@@H](CCCNC(=N)N)NC(=O)[C@H](CC(=O)O)NC(=O)[C@H](Cc4ccccn4)NC(=O)CN(C)C3=O)cc2)cc1 [Example 176] ({CH2CO}-[Ala(morpholin-4-yl)][Bip][Bip(4'-NHAc)][Sar][2Pal]D[dR]VPV[3Pal]LCG-NH2; thioether N-13)	
< 50	CC(=O)Nc1ccc(-c2ccc(C[C@@H]3NC(=O)[C@H](Cc4ccc(-c5ccc(C(=O)O)cc5)cc4)NC(=O)[C@H](CN4CCOCC4)NC(=O)CSC[C@@H](C(=O)NCC(N)=O)NC(=O)[C@H](CC(C)C)NC(=O)[C@H](Cc4cccc(CN)c4)NC(=O)[C@H](C(C)C)NC(=O)[C@@H]4CCN4C(=O)[C@H](C(C)C)NC(=O)[C@@H](CCCNC(=N)N)NC(=O)[C@H](CC(=O)O)NC(=O)[C@H](Cc4ccccn4)NC(=O)CN(C)C3=O)cc2)cc1 [Example 181] ({CH2CO}-[Ala(morpholin-4-yl)][Bip(4'-COOH)][Bip(4'-NHAc)][Sar][2Pal]D[dR]V[Aze]V[Phe(3-CH2NH2)]LCG-NH2; thioether N-13)	
	CC(C)C[C@@H]1NC(=O)[C@H](Cc2ccc(O)cc2)NC(=O)[C@H](C(C)C)NC(=O)[C@@H]2CCCN2C(=O)[C@H](C(C)C)NC(=O)[C@@H](CCCNC(=N)NCc2cccc(O)c2)NC(=O)[C@H](CC(=O)O)NC(=O)[C@@H]2CCCN2C(=O)CN(C)C(=O)[C@H](Cc2ccc(-c3ccc(NC(=O)c4nn(CC(=O)O)c5ccccc45)cc3)cc2)NC(=O)[C@H](Cc2ccc(-c3ccccc3)cc2)NC(=O)[C@H](CN2CCOCC2)NC(=O)CSC[C@@H](C(=O)NCC(N)=O)NC1=O [Example 625] ({CH2CO}-[Ala(morpholin-4-yl)][Bip][Bip(4'-NH)](Indazole3carbonyl(1-CH2COOH))[Sar]PD[dArg(ω-(3-HO-benzyl))]VPVYLCG-NH2; thioether N-13)	< 50
